Experimental findings from patent publication US20220386602A1, “METHODS OF USING A COMPOSITION COMPRISING AN ANIONIC PESTICIDE AND A BUFFER” (BASF CORPORATION, priority 2019, published 2022) are described below.

Read-outs that look alike come from different tables or passages of the source.

The data set relates to dicamba sensitive soybean plants. The note with it: dicamba 2240 g ae/ha, AMS 917 g/ha and K2CO3 buffer 4000 g/ha where named, 0.25% v/v non-ionic surfactant (Preference), 8 glass petri plates. An excerpt: The method of a bioassay humidome study utilizes a treated substrate (e.g. glass, soil, potting mix or plants) placed in a plastic tray covered with a clear plastic humidome (overall size 25 cm wide×50 cm long×20 cm tall; source: Hummert) along with 2 dicamba sensitive soybean plants (1-2 true leaves). Individual humidomes representing different study treatments and replicates are placed in a greenhouse environment (with a typical diurnal temperature range of 25 to 40 C and 75 to 98 % RH).
After 18 to 24 hours, the sensitive soybean plants are removed from the humidomes and placed on a greenhouse bench for observation and visual response or injury assessment over a 2-3 weeks period. The level of injury to soybean plants is an indirect measurement of amount of dicamba exposure from treated substrate.

Regarding `CN(CCCN)CCCN.COc1c(Cl)ccc(Cl)c1C(=O)O` [Dicamba-BAPMA, dicamba N,N-bis(3-aminopropyl)methylamine salt], the “% bioassay soybean response” value is reported as 9%. Besides, the “% bioassay soybean response” value (listed as dicamba-BAPMA) is “lower soybean response than dicamba-DGA or dicamba-DMA”.
In the case of `CNC.COc1c(Cl)ccc(Cl)c1C(=O)O` [Dicamba-DMA, dicamba dimethylamine], the “% bioassay soybean response” value came to 45%.
